In the test the target is C-C chemokine receptor type 2 (Homo sapiens, UniProt P41597). In words: Antagonist activity at Homo sapiens (human) CCR2 receptor.
C-C chemokine receptor type 2, sequence (P41597 whole entry): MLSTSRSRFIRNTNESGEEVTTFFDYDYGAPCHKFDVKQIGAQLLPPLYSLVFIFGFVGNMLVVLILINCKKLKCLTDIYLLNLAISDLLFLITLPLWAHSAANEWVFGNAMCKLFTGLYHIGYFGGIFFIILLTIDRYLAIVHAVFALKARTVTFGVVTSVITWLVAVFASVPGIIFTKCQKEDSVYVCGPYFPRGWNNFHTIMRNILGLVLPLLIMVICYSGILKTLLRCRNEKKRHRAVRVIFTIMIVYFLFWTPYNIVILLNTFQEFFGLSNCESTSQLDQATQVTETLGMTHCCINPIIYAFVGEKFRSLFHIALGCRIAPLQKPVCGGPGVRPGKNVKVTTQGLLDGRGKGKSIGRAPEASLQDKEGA

`O=C(NCc1cc(C(F)(F)F)cc(C(F)(F)F)c1)[C@H](NCCN1CCCCC1)c1ccsc1`: the IC50 – broadly, the concentration that gives 50% inhibition – came to 39 nM.

The compound `CO[C@@H]1COCC[C@@H]1N[C@@H]1CC[C@](C(=O)N2CCc3ncc(C(F)(F)F)cc3C2)(C(C)C)C1` gave an IC50 of 5 nM.

The values above are taken from ChEMBL document CHEMBL3044721, “Homology modeling of human CCR2 receptor” (Med Chem Res, 2011).
